From the NIST ThermoML archive (doi:10.1016/j.jct.2007.02.002) come the findings set out here.

Numbers after ± are expanded uncertainties.

The conditions of the first data set: 288.15 K; 101.33 kPa; Liquid.
As a reminder, the mass density is the mass of a sample divided by its volume. For `COC(C)(C)C` [2-methoxy-2-methylpropane], the mass density turned out to be 745.79 ± 0.27 kg/m3.
As for `CCCCO` [butan-1-ol], the mass density is 813.24 ± 0.4 kg/m3.
Take `CCCCCC` [hexane]: the mass density is given as 663.87 ± 0.68 kg/m3.

Staying with this data set, now noted: 288.15 K; 101.33 kPa; Liquid; Sing-around technique in a fixed-path interferometer.
Usually speed of sound stands for the propagation velocity of pressure waves in the medium. As to `COC(C)(C)C` [2-methoxy-2-methylpropane], the speed of sound was 1082.4 ± 1.2 m/s.
Same read-out and setting: next, `CCCCO` [butan-1-ol]: 1273.7 ± 1.7 m/s; `CCCCCC` [hexane]: 1121.4 ± 1.3 m/s.

Staying with this data set, now noted: 293.15 K; 101.33 kPa; Liquid.
As for `COC(C)(C)C` [2-methoxy-2-methylpropane], the mass density is recorded as 740.6 ± 0.28 kg/m3.
Same read-out and setting: next, `CCCCO` [butan-1-ol]: 809.48 ± 0.4 kg/m3; `CCCCCC` [hexane]: 659.44 ± 0.69 kg/m3.

Still in this data set, the particulars now being: 293.15 K; 101.33 kPa; Liquid; Sing-around technique in a fixed-path interferometer.
For the molecule `COC(C)(C)C` [2-methoxy-2-methylpropane], the speed of sound was found to be 1059.4 ± 1.2 m/s.
On the same count and under the same terms, then `CCCCO` [butan-1-ol], with 1257 ± 1.7 m/s.
Take `CCCCCC` [hexane]: the speed of sound was found to be 1099 ± 1.3 m/s.

Still in this data set, the particulars now being: 298.15 K; 101.33 kPa; Liquid.
With `COC(C)(C)C` [2-methoxy-2-methylpropane], the mass density came out at 735.35 ± 0.28 kg/m3.
Same read-out and setting: then `CCCCO` [butan-1-ol], with 805.67 ± 0.4 kg/m3.
On the same count and under the same terms, next, `CCCCCC` [hexane]: 654.95 ± 0.7 kg/m3.

Still in this data set, the particulars now being: 298.15 K; 101.33 kPa; Liquid; Sing-around technique in a fixed-path interferometer.
On to `COC(C)(C)C` [2-methoxy-2-methylpropane], for which the speed of sound amounted to 1036.1 ± 1.2 m/s.
On the same count and under the same terms, then `CCCCO` [butan-1-ol], with 1239.8 ± 1.7 m/s.
Still for that read-out and setting: next, `CCCCCC` [hexane]: 1076.3 ± 1.2 m/s.

The same data set, now with this note: 303.15 K; 101.33 kPa; Liquid.
As to `COC(C)(C)C` [2-methoxy-2-methylpropane], the mass density came out at 730.06 ± 0.28 kg/m3.
On the same count and under the same terms, next, `CCCCO` [butan-1-ol]: 801.85 ± 0.4 kg/m3.
Same read-out and setting: next, `CCCCCC` [hexane]: 650.4 ± 0.7 kg/m3.

The data set is the same for the next values; noted with them: 303.15 K; 101.33 kPa; Liquid; Sing-around technique in a fixed-path interferometer.
For the molecule `COC(C)(C)C` [2-methoxy-2-methylpropane], the speed of sound came to 1013 ± 1.2 m/s.
`CCCCO` [butan-1-ol]: the speed of sound is reported as 1222.7 ± 1.7 m/s.
On the same count and under the same terms, next, `CCCCCC` [hexane]: 1053.6 ± 1.2 m/s.

Still in this data set, the particulars now being: 308.15 K; 101.33 kPa; Liquid.
For `COC(C)(C)C` [2-methoxy-2-methylpropane], the mass density was found to be 724.73 ± 0.29 kg/m3.
Turning to `CCCCO` [butan-1-ol], the mass density amounted to 797.99 ± 0.41 kg/m3.
With `CCCCCC` [hexane], the mass density amounted to 645.82 ± 0.71 kg/m3.

The data set is the same for the next values; noted with them: 308.15 K; 101.33 kPa; Liquid; Sing-around technique in a fixed-path interferometer.
For the molecule `COC(C)(C)C` [2-methoxy-2-methylpropane], the speed of sound was found to be 990.1 ± 1.1 m/s.
Still for that read-out and setting: next, `CCCCO` [butan-1-ol]: 1205.9 ± 1.7 m/s; `CCCCCC` [hexane]: 1031.1 ± 1.2 m/s.
